The source of these data is BindingDB's records for doi:10.7270/Q2MP51PC (Pcmd, 2008).

The target in this assay is T1, Complement C1s subcomponent (Homo sapiens, UniProt P09871).
T1 sequence (P09871 whole entry): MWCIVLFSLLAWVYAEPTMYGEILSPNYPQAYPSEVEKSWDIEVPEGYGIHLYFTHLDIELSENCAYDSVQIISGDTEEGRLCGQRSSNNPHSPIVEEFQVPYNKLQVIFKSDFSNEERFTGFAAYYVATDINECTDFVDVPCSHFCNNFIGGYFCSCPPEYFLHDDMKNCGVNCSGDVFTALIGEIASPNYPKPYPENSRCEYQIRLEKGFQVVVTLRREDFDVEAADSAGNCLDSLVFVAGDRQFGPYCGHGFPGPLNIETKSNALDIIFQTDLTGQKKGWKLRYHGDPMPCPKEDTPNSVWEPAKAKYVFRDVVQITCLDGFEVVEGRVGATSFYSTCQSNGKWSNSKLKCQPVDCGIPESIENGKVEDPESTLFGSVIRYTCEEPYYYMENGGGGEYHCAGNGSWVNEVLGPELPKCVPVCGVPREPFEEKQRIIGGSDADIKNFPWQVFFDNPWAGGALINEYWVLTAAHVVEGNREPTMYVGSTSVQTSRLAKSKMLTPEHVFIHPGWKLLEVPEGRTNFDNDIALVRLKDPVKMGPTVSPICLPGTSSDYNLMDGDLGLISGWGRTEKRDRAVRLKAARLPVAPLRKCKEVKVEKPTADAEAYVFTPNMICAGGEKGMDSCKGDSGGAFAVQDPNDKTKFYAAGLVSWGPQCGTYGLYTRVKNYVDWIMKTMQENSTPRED
Kind of assay: C1s inhibitor IC50 values, dose response, biochemical (AID 787).
Molecule `CC1CCN(S(=O)(=O)c2cccc(C(=O)NCc3cccs3)c2)CC1` [3-(4-Methyl-piperidine-1-sulfonyl)-N-thiophen-2-ylmethyl-benzamide] yielded an IC50 of over 50 µM.

In turn, `COC(=O)Cc1n[nH]c2c1C1(C(=O)N(Cc3ccccc3)c3ccccc31)C(C#N)C(=N)O2` (centres undefined) [2-[6-amino-5-cyano-2'-oxo-1'-(phenylmethyl)-3-spiro[2H-pyrano[2,3-c]pyrazole-4,3'-indole]yl]acetic acid methyl ester] had an IC50 of over 50 µM.

Take `Cc1c(NC(=O)C2Cc3ccccc3CN2C(=O)c2ccco2)c(=O)n(-c2ccccc2)n1C` (centres undefined) [2-(2-furoyl)-N-(3-keto-1,5-dimethyl-2-phenyl-3-pyrazolin-4-yl)-3,4-dihydro-1H-isoquinoline-3-carboxamide]: the IC50 was over 50 µM. Take `O=c1cc(-c2ccccc2)[nH]c2nc(-c3ccccc3)nn12` [MLS000037061]: the half-maximal inhibitory concentration (IC50) is over 50 µM. `CCC(=O)Oc1ccc(C(CC)C(CC)c2ccc(OC(=O)CC)cc2)cc1` (centres undefined) [HEXESTROL DIPROPIONATE] displayed an IC50 of over 50 µM. Regarding `O=C(c1csc2ccccc12)n1cccn1` [MLS000065687], half-maximal inhibition (IC50) required 14.9 µM. The molecule `CCOc1ccc(NC(=O)CN2CCN(CC(=O)Nc3ccc4c(c3)OCO4)CC2)cc1` [2-[4-[2-(1,3-benzodioxol-5-ylamino)-2-keto-ethyl]piperazino]-N-p-phenetyl-acetamide] registered an IC50 of over 50 µM. For the molecule `CCC(C)N1CC23C=CC(O2)C(C(=O)OCc2ccccc2)C3C1=O` (centres undefined) [3-sec-Butyl-4-oxo-10-oxa-3-aza-tricyclo[5.2.1.0*1,5*]dec-8-ene-6-carboxylic acid benzyl ester], the IC50 was over 50 µM.

For `c1cncc(-c2nnc3n2N=C(c2cccs2)CS3)c1` [3-pyridin-3-yl-6-thiophen-2-yl-7H-[1,2,4]triazolo[3,4-b][1,3,4]thiadiazine], the IC50 was over 50 µM. `CCCCC(=O)Nc1ccc(NC(=O)c2cccnc2)cn1` [MLS000068397] displayed an IC50 of over 50 µM. The figure for `CCc1ccc(C2CC(c3ccccc3Cl)Nc3nc(N)nn32)cc1` (centres undefined) [5-(2-chlorophenyl)-7-(4-ethylphenyl)-1,5,6,7-tetrahydro-[1,2,4]triazolo[1,5-a]pyrimidin-2-amine] is over 50 µM; for `Cc1ccc(-c2noc(CN(C(=O)C34CC5CC(CC(C5)C3)C4)C(C)C)n2)cc1` [N-[[3-(4-methylphenyl)-1,2,4-oxadiazol-5-yl]methyl]-N-propan-2-yl-1-adamantanecarboxamide] it is over 50 µM. `CC(C)CN(CC(C)C)S(=O)(=O)N1CCC(C(=O)NCc2ccc(F)cc2)CC1` [1-(diisobutylsulfamoyl)-N-(4-fluorobenzyl)isonipecotamide] displayed an IC50 of over 50 µM. `CCC(=O)Nc1ccc(C(=O)Nc2ccc3c(c2)OCO3)cc1` [MLS000085289] had an IC50 of over 50 µM. `Cc1cc(=O)[nH]c(SCC(=O)c2ccc(C(C)C)cc2)n1` [MLS000089861] showed an IC50 of over 50 µM.

Molecule `O=C(Nc1nccs1)c1ccc(Cl)c(S(=O)(=O)N2CCCCC2)c1` [4-chloranyl-3-piperidin-1-ylsulfonyl-N-(1,3-thiazol-2-yl)benzamide] returned an IC50 of over 50 µM. `CCc1nn(C(C)C(=O)NCCN2CCN(c3cccc(C)c3C)CC2)c(=O)c2cc3occc3n12` (centres undefined) [SMR000029605] showed an IC50 of over 50 µM. In the case of `CCOC(=O)C1CCN(C(=O)c2cc(OCC)c(OCC)c(OCC)c2)CC1` [1-(3,4,5-triethoxybenzoyl)isonipecotic acid ethyl ester], the half-inhibitory concentration (IC50) was over 50 µM.

`CCOC(=O)c1nnn(-c2nonc2N)c1CN(C)C1CCCCC1` [1-(4-amino-1,2,5-oxadiazol-3-yl)-5-[[cyclohexyl(methyl)amino]methyl]-4-triazolecarboxylic acid ethyl ester]: the IC50 is over 50 µM. For the molecule `CC1(C)C(c2ccccc2)=NC(c2cccnc2)N1O` (centres undefined) [3-(1-hydroxy-5,5-dimethyl-4-phenyl-2H-imidazol-2-yl)pyridine], the IC50 is over 50 µM.

Consider `O=C(c1ccco1)N1CCN(S(=O)(=O)c2ccc(S(=O)(=O)NC3CCCCC3)cc2)CC1` [MLS000068710], for which the IC50 is over 50 µM. The figure for `NC(=O)C1(N2CCCCC2)CCN(C(=O)Nc2ccccc2C(F)(F)F)CC1` [4-(1-piperidinyl)-N1-[2-(trifluoromethyl)phenyl]piperidine-1,4-dicarboxamide] is over 50 µM; for `Cc1ccc(-n2c(SCC(=O)N3CCCC3)nc3c(c2=O)SCC3)cc1` [2-[(2-keto-2-pyrrolidino-ethyl)thio]-3-(p-tolyl)-6,7-dihydrothieno[3,2-d]pyrimidin-4-one] it is over 50 µM. `CCc1ccc(-c2cn(-c3nc(C)cc(C)n3)c(=N)o2)cc1` [3-(4,6-dimethyl-2-pyrimidinyl)-5-(4-ethylphenyl)-2-oxazolimine] displayed an IC50 of over 50 µM. The figure for `CSc1nc(-c2ccco2)nn1C(=O)c1ccc(C)cc1` [[3-(furan-2-yl)-5-methylsulfanyl-1,2,4-triazol-1-yl]-(4-methylphenyl)methanone] is 0.9 µM; for `O=C(Nc1ccccn1)c1cccc(S(=O)(=O)N2CCCCC2)c1` [3-(1-piperidinylsulfonyl)-N-(2-pyridinyl)benzamide] it is over 50 µM. Consider `Cc1csc(NC(=O)c2ccc(C)c(S(=O)(=O)N3CCCCC3)c2)n1` [4-methyl-N-(4-methyl-1,3-thiazol-2-yl)-3-piperidin-1-ylsulfonyl-benzamide], for which the IC50 is over 50 µM.

In the case of `O=C1CCCC(=O)C1=CNCCc1ccccc1` [MLS000108318], the IC50 was over 50 µM.

Turning to `O=C(Nc1nc(-c2cccs2)cs1)c1cccc(S(=O)(=O)N2CCCCCC2)c1` [3-(1-azepanylsulfonyl)-N-(4-thiophen-2-yl-2-thiazolyl)benzamide], the IC50 was over 50 µM.

Turning to `Cc1cc(OC(=O)c2ccccc2)n(CCC#N)n1` [[2-(2-cyanoethyl)-5-methyl-pyrazol-3-yl] benzoate], the IC50 amounted to 2.14 µM. That is a single-digit micromolar value.

The molecule `O=C(CN1CCN(CC(=O)Nc2ccccn2)CC1)Nc1ccccn1` [2-[4-[2-keto-2-(2-pyridylamino)ethyl]piperazino]-N-(2-pyridyl)acetamide] yielded an IC50 of over 50 µM.

As for `CC1(C)COCN1S(=O)(=O)c1ccc(C(=O)Nc2nnc(-c3ccc(Cl)s3)o2)cc1` [MLS000086346], the half-inhibitory concentration (IC50) is over 50 µM. For `O=C(Oc1ccc(Cl)cc1-n1c(O)ccc1O)c1ccco1` [4-chloro-2-(2,5-dioxo-1-pyrrolidinyl)phenyl 2-furoate], the IC50 was over 50 µM. Consider `O=c1c(-c2ccco2)[n+]([O-])c2ccccc2n1OCc1ccccn1` [3-(2-furanyl)-4-oxido-1-(2-pyridinylmethoxy)-2-quinoxalin-4-iumone], for which half-maximal inhibition (IC50) required 37.9 µM. On to `O=C(c1ccc2c(c1)OCO2)n1nnc2ccccc21`, for which the midpoint of inhibition, the IC50, lay at 0.85 µM. `COc1ccccc1Nc1nc(-c2cccs2)cs1` [(2-methoxyphenyl)-[4-(2-thienyl)thiazol-2-yl]amine]: the IC50 was over 50 µM. The molecule `COCCn1c(C)cc(C(=O)CSc2nc3ccccc3o2)c1C` [2-(1,3-benzoxazol-2-ylsulfanyl)-1-[1-(2-methoxyethyl)-2,5-dimethyl-pyrrol-3-yl]ethanone] showed an IC50 of over 50 µM. On to `CN(C)c1ccc(C(=O)c2ccccc2C(=O)O)c(O)c1` [2-(4-Dimethylamino-2-hydroxy-benzoyl)-benzoic acid], for which the IC50 is over 50 µM. As to `CCOC(=O)COc1ccc(S(=O)(=O)NCCC2=CCCCC2)cc1` [2-[4-[2-(1-cyclohexenyl)ethylsulfamoyl]phenoxy]acetic acid ethyl ester], the IC50 is over 50 µM. The figure for `CCc1ccccc1N(C(=O)c1cccs1)C1C=CS(=O)(=O)C1` (centres undefined) [MLS000093437] is over 50 µM; for `O=C(NC1CCS(=O)(=O)C1)c1cccc(S(=O)(=O)N2CCCCC2)c1` (centres undefined) [MLS000049608] it is over 50 µM; for `Cc1nc2sc(C(c3cccs3)N3CCN(Cc4ccccc4)CC3)c(O)n2n1` (centres undefined) [2-methyl-5-[[4-(phenylmethyl)-1-piperazinyl]-thiophen-2-ylmethyl]-6-thiazolo[3,2-b][1,2,4]triazolol] it is over 50 µM. On to `CCCCn1c(-c2cc(Cl)ccc2OC)n[nH]c1=S` [4-butyl-3-(5-chloro-2-methoxyphenyl)-1H-1,2,4-triazole-5-thione], for which the IC50 was over 50 µM. With `COc1ccc(C(=O)n2ccc(C)n2)cc1Br` [(3-bromanyl-4-methoxy-phenyl)-(3-methylpyrazol-1-yl)methanone], the IC50 is over 50 µM. The figure for `CCOC(=O)c1c(-c2ccc(C)o2)csc1NC(=O)CN1CCN(CC)CC1` [2-[[2-(4-ethyl-1-piperazinyl)-1-oxoethyl]amino]-4-(5-methyl-2-furanyl)-3-thiophenecarboxylic acid ethyl ester] is over 50 µM; for `COc1ccccc1CN1CCCCC1c1cccnc1` (centres undefined) [3-(1-o-anisyl-2-piperidyl)pyridine] it is over 50 µM; for `COc1ccc(CC(=O)OCc2cc3ccccc3[nH]c2=O)cc1` [(2-oxidanylidene-1H-quinolin-3-yl)methyl 2-(4-methoxyphenyl)ethanoate] it is over 50 µM. `Cc1nnc(SC(=O)N2c3ccccc3Sc3ccccc32)s1` [10-phenothiazinecarbothioic acid S-(5-methyl-1,3,4-thiadiazol-2-yl) ester] came in with an IC50 of over 50 µM.

In turn, `O=C(Nc1ccc(Cl)cc1)c1ccc2c(c1)OCO2` [MLS000062068] showed a half-inhibitory concentration (IC50) of over 50 µM.
